Tests used:
Conditions in all cases: 72 h
Caco-2 [1] = experiment: cell viability relative to DMSO; higher = less toxic
Calu-3 [2] = experiment: as above
HepG2 [3] = experiment: as above
U2OS [4] = experiment: as above
Vero E6 [5] = experiment: as above
Calu-3 [6] = experiment: relative viability EC50 (midpoint between 100% and the lowest measured viability); higher = less toxic
HepG2 [7] = experiment: as above
U2OS [8] = experiment: as above
Vero E6 [9] = experiment: as above
Caco-2 [10] = experiment: drug sensitivity score (DSS) for viability; higher = more toxic; extreme values may be limits of the assay
Calu-3 [11] = experiment: as above
HepG2 [12] = experiment: as above
U2OS [13] = experiment: as above
Vero E6 [14] = experiment: as above
Caco-2 [15] = experiment: relative viability EC50 (midpoint between 100% and the lowest measured viability); higher = less toxic

| Structure (SMILES) | cell viability (Caco-2 [1]; 1 nM) | cell viability (Caco-2 [1]; 10 nM) | cell viability (Caco-2 [1]; 100 nM) | cell viability (Caco-2 [1]; 1000 nM) | cell viability (Caco-2 [1]; 10000 nM) | cell viability (Calu-3 [2]; 1 nM) | cell viability (Calu-3 [2]; 10 nM) | cell viability (Calu-3 [2]; 100 nM) | cell viability (Calu-3 [2]; 1000 nM) | cell viability (Calu-3 [2]; 10000 nM) | cell viability (HepG2 [3]; 1 nM) | cell viability (HepG2 [3]; 10 nM) | cell viability (HepG2 [3]; 100 nM) | cell viability (HepG2 [3]; 1000 nM) | cell viability (HepG2 [3]; 10000 nM) | cell viability (U2OS [4]; 1 nM) | cell viability (U2OS [4]; 10 nM) | cell viability (U2OS [4]; 100 nM) | cell viability (U2OS [4]; 1000 nM) | cell viability (U2OS [4]; 10000 nM) | cell viability (Vero E6 [5]; 1 nM) | cell viability (Vero E6 [5]; 10 nM) | cell viability (Vero E6 [5]; 100 nM) | cell viability (Vero E6 [5]; 1000 nM) | cell viability (Vero E6 [5]; 10000 nM) | relative viability EC50 (Calu-3 [6]) | relative viability EC50 (HepG2 [7]) | relative viability EC50 (U2OS [8]) | relative viability EC50 (Vero E6 [9]) | drug sensitivity score (Caco-2 [10]) | drug sensitivity score (Calu-3 [11]) | drug sensitivity score (HepG2 [12]) | drug sensitivity score (U2OS [13]) | drug sensitivity score (Vero E6 [14]) | relative viability EC50 (Caco-2 [15]) |
| --- | --- | --- | --- | --- | --- | --- | --- | --- | --- | --- | --- | --- | --- | --- | --- | --- | --- | --- | --- | --- | --- | --- | --- | --- | --- | --- | --- | --- | --- | --- | --- | --- | --- | --- | --- |
| O=C(CCCc1ccc(-c2ccccc2F)cc1)Nc1ccc(O)cc1 [CMPD-1] | 95.6% | 92.4% | 97.5% | 112% | 71.9% | 94.2% | 105% | 99% | 88.8% | 86.3% | 99% | 97.8% | 107% | 99.2% | 42.6% | 94.9% | 99.4% | 94.2% | 74.8% | 36.6% | 97.2% | 95.3% | 99.6% | 97.6% | 95.5% | > 10 µM | 3.08 µM | 1.27 µM | > 10 µM | 0.8 | 0.8 | 3.2 | 6.3 | 0 | – |
| Cc1cccc(OCC(O)CNC(C)(C)C)c1C (stereo unspecified) [xibenolol] | 74.6% | 95.8% | 80.1% | 94.3% | 100% | 106% | 92.9% | 95.6% | 101% | 103% | – | – | – | – | – | 102% | 97.4% | 99.2% | 94.6% | 110% | 104% | 99.3% | 100% | 107% | 95.4% | > 10 µM | – | > 10 µM | > 10 µM | 0.7 | 0 | – | 0 | 0 | – |
| CC(O)(CS(=O)(=O)c1ccc(F)cc1)C(=O)Nc1ccc(C#N)c(C(F)(F)F)c1 (stereo unspecified) [bicalutamide] | – | – | – | – | – | – | – | – | – | – | – | – | – | – | – | – | – | – | – | – | – | – | – | – | – | – | – | – | – | – | 0 | 0 | 0 | 0 | – |
| CC(C)(C)n1nc(-c2ccc(Cl)cc2)c2c(N)ncnc21 [PP-2] | 92.3% | 98.6% | 100% | 88.2% | 54.2% | 104% | 104% | 84.9% | 87% | 37% | 107% | 98% | 92.6% | 103% | 90.7% | 93.4% | 98.4% | 96.7% | 89.7% | 77.3% | 99.4% | 93.5% | 102% | 95.6% | 47% | 1.77 µM | > 10 µM | > 10 µM | 2.49 µM | 4.2 | 5.4 | 0 | 1.4 | 3.5 | – |
| CC[C@H]1[C@@H](O)[C@@H]2[C@H](CC[C@]3(C)[C@@H]([C@H](C)CCOS(=O)(=O)O)CC[C@@H]23)[C@@]2(C)CC[C@@H](O)C[C@@H]12 [INT-767] | – | – | – | – | – | 110% | 107% | 108% | 105% | 99.5% | 115% | 118% | 96.2% | 99.4% | 111% | 102% | 98.1% | 102% | 101% | 101% | – | – | – | – | – | > 10 µM | > 10 µM | > 10 µM | – | – | 0 | 0 | 0 | – | – |
| CC[C@H](CO)Nc1nc(NCc2ccccc2)c2ncn(C(C)C)c2n1 [roscovitine] | – | – | – | – | – | – | – | – | – | – | – | – | – | – | – | – | – | – | – | – | – | – | – | – | – | – | – | – | – | – | 0 | 0 | 0 | 0 | – |
| NC(=O)[C@H]1CCS[C@@H]2C[C@]3(CCCN3C(=O)Cc3ccc(NC(=O)COc4ccc(Cl)cc4Cl)cc3)C(=O)N12 [ST-2825] | 84.7% | 90.3% | 91.9% | 92.9% | 56% | 106% | 96.9% | 96.1% | 99.8% | 91.7% | 96.5% | 101% | 103% | 91.7% | 40.5% | 96.4% | 104% | 97.6% | 103% | 55.6% | 101% | 92.2% | 94.8% | 88.1% | 86.6% | > 10 µM | 2.05 µM | – | > 10 µM | 3.5 | 0 | 4.6 | 2 | 0.5 | – |
| CCc1c2c(nc3ccc(OC(=O)N4CCC(N5CCCCC5)CC4)cc13)-c1cc3c(c(=O)n1C2)COC(=O)[C@]3(O)CC [irinotecan] | 95.1% | 91.6% | 95.5% | 90.9% | 61.5% | 103% | 94.7% | 93.7% | 69.3% | 47.5% | 95.4% | 99.2% | 76.9% | 37.5% | 21.7% | 104% | 97.4% | 98.1% | 88.7% | 59.1% | 94.3% | 97.4% | 95.6% | 95.8% | 75.2% | 0.679 µM | 0.244 µM | – | > 10 µM | 3.3 | 6.5 | 14.4 | 3.8 | 1.6 | – |
| Cc1cc([N+](=O)[O-])ccc1NS(=O)(=O)c1cc(Cl)ccc1Cl [FH-535] | 107% | 103% | 110% | 87.2% | 60.3% | 104% | 92.4% | 105% | 101% | 93.2% | 100% | 106% | 94.5% | 96.7% | 50.1% | 101% | 97.6% | 93.3% | 96.9% | 89.5% | 98.3% | 102% | 94.1% | 92.8% | 79.2% | > 10 µM | – | > 10 µM | > 10 µM | 3.8 | 0 | 3.1 | 0 | 0.9 | – |
| CN(C)CCCN1c2ccccc2Sc2ccc(Cl)cc21 [chlorpromazine] | 96.3% | 97.3% | 96.5% | 105% | 88.9% | 110% | 97% | 109% | 102% | 73.8% | 96.5% | 102% | 105% | 91.3% | 52.4% | 98.9% | 100% | 93.6% | 102% | 86.2% | 98.5% | 98.8% | 97.4% | 99.6% | 56.9% | – | – | > 10 µM | – | 0 | 0.9 | 3.9 | 0.1 | 2.2 | > 10 µM |
| Cc1ccc(C(C)C)c(O)c1 [thymol] | – | – | – | – | – | – | – | – | – | – | – | – | – | – | – | – | – | – | – | – | – | – | – | – | – | – | – | – | – | – | 0 | 0 | 0 | 0 | – |
| COC(=O)c1ccc(O)cc1 [methylparaben] | – | – | – | – | – | – | – | – | – | – | – | – | – | – | – | – | – | – | – | – | – | – | – | – | – | – | – | – | – | – | 0 | 0 | 0 | 0 | – |
| Cc1cc(F)c(Nc2ncnc3cc(OCc4ccccc4)ccc23)cc1O | 101% | 96.6% | 88.4% | 79.4% | 74% | 104% | 95.1% | 89.4% | 104% | 76.9% | 105% | 95.5% | 106% | 100% | 85.5% | 97.9% | 101% | 96.8% | 102% | 72.9% | 99.9% | 103% | 99.3% | 96.2% | 84% | > 10 µM | > 10 µM | – | > 10 µM | 4 | 0.6 | 0.2 | 0.9 | 0.7 | – |
| CC(=O)O[C@]1(C(C)=O)CC[C@H]2[C@@H]3C=C(C)C4=CC(=O)CC[C@]4(C)[C@H]3CC[C@@]21C [megestrol-acetate] | – | – | – | – | – | – | – | – | – | – | – | – | – | – | – | – | – | – | – | – | – | – | – | – | – | – | – | – | – | – | 0 | 0 | 0 | 0 | – |
| NC(=O)N1c2ccccc2CC(=O)c2ccccc21 [oxcarbazepine] | – | – | – | – | – | 96.1% | 93.6% | 82.6% | 105% | 95.1% | 90.8% | 92.3% | 115% | 90.7% | 87.5% | 101% | 100% | 101% | 96.7% | 99.1% | – | – | – | – | – | > 10 µM | > 10 µM | > 10 µM | – | – | 0 | 0.5 | 0 | – | – |
| CCn1c(=O)c(-c2ccc(Cl)cc2Cl)cc2cnc(Nc3ccc(N4CCNCC4)c(F)c3)nc21 [FRAX486] | 94.9% | 92.4% | 97.7% | 80% | 63.4% | 104% | 100% | 105% | 91.9% | 97.9% | 96.6% | 97.8% | 93.1% | 99.3% | 51.6% | 103% | 99.8% | 101% | 91.6% | 43% | 97% | 102% | 99.6% | 90.9% | 31.7% | > 10 µM | – | 2.01 µM | 2.09 µM | 3.9 | 0 | 2.6 | 4.5 | 5.3 | – |
| CCN1CCCC(OC(=O)C(c2ccccc2)c2ccccc2)C1 (stereo unspecified) [piperidolate] | 89% | 90.3% | 70.2% | 79.2% | 77.9% | 99.1% | 95.2% | 102% | 105% | 89.3% | 105% | 89.1% | 115% | 97.8% | 110% | 98.4% | 100% | 100% | 100% | 92.4% | 98.8% | 98.7% | 98% | 98% | 98.2% | > 10 µM | > 10 µM | > 10 µM | > 10 µM | 7 | 0 | 0 | 0 | 0 | – |
| N=C(N)NS(=O)(=O)c1ccc(N)cc1 [sulfaguanidine] | – | – | – | – | – | – | – | – | – | – | – | – | – | – | – | – | – | – | – | – | – | – | – | – | – | – | – | – | – | – | 0 | 0 | 0 | 0 | – |
| CO[C@@H]1[C@H](N(C)C(=O)c2ccccc2)C[C@H]2O[C@]1(C)n1c3ccccc3c3c4c(c5c6ccccc6n2c5c31)C(=O)NC4 [midostaurin] | 108% | 111% | 97.4% | 74.9% | 63.3% | 89.5% | 88.5% | 102% | 67.3% | 43.3% | 97% | 94% | 93.9% | 53.9% | 44.3% | 102% | 99.2% | 103% | 59.6% | 29% | 110% | 101% | 94.3% | 63.9% | 36% | 0.885 µM | 0.369 µM | 0.897 µM | 0.793 µM | 4.7 | 7.1 | 9.3 | 8.8 | 7.8 | – |

Reference: the supplement of paper PMC13380429
